The record followed here is patent US6355648B1, “Thio-oxindole derivatives” (American Home Products Corporation, priority 1999, dated 2002).

Each structure is given as a SMILES string. Where “and” joins values, the source holds several entries; their conditions need not be identical. Equal entries are not always repeated.

For series [1], the system named is rat uterine decidualization. As to the kind of experiment: Rat decidualization assay. The series is classed as in vivo. The note with it: for EC50: half-maximal increase in decidual response (uterine wet weight), ovariectomized rats, s.c., individual studies. How it is done: 1. Rat Decidualization Assay:
The animals are treated once daily for seven days.
Uteri are removed and trimmed of fat. Decidualized (D-hom) and control (C-horn) uterine horns are weighed separately.
Body weight: Mean total animal body weight (default-kg)
Decidual response: [(D-C)/C]×100%

The target in series [2] is T1, A-form of the human progesterone receptor (Homo sapiens, UniProt P06401).
T1 sequence (P06401 1-769 isoform P06401-2): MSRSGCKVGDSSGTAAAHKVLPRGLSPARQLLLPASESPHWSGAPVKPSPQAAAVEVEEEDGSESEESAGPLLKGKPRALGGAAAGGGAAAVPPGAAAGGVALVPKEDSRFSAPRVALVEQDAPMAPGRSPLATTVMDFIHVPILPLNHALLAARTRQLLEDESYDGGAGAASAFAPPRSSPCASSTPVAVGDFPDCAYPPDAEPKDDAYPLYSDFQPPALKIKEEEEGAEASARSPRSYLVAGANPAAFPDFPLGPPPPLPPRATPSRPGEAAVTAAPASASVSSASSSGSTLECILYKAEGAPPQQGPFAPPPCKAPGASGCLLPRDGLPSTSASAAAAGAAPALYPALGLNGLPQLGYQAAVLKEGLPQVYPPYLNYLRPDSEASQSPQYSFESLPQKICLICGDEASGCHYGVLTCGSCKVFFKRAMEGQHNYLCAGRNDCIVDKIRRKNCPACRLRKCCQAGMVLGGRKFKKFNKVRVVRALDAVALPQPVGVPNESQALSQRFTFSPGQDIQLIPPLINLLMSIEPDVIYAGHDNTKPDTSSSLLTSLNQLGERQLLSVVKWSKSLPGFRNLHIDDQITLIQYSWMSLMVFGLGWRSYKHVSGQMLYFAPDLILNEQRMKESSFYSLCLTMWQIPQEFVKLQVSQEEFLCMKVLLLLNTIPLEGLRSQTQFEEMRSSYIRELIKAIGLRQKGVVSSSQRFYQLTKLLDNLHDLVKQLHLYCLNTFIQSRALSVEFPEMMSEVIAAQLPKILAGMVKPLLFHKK
As to the kind of experiment: hPR binding assay (competitive radioligand binding).

A further series deals with T2, human PR (Homo sapiens, UniProt P06401).
T2 construct: expressed in transfected cells; host or cells: CV-1 cells, electroporated with pLEM-hPR-B plasmid
T2 sequence (P06401 1-933): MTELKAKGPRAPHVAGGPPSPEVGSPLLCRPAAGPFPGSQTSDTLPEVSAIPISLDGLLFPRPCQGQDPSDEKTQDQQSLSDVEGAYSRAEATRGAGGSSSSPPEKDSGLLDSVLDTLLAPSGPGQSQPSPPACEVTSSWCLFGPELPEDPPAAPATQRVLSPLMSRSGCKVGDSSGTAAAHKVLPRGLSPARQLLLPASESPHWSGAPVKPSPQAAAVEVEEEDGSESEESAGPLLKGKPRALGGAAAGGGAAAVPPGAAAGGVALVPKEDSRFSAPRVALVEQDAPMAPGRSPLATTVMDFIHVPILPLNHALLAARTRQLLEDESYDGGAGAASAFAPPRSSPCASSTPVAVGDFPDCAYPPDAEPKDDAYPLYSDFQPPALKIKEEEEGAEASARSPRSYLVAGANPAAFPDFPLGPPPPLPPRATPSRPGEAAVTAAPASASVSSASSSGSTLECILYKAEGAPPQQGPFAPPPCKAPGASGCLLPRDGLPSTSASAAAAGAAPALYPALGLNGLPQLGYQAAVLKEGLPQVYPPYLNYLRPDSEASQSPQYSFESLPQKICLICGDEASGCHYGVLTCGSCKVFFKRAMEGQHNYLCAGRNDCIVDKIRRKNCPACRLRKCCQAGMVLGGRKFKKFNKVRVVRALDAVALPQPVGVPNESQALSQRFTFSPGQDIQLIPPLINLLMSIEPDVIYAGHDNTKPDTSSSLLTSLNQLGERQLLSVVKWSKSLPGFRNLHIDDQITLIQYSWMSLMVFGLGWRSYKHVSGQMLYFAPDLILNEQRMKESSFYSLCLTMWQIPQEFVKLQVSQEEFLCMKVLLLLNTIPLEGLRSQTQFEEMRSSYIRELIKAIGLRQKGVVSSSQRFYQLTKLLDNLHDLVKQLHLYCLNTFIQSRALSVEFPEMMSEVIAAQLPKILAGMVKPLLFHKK
As to the kind of experiment: PRE-luciferase assay in CV-1 cells. It counts as cell-based. The settings on record: PRE-luciferase agonist mode in CV-1 cells. On the procedure: 2. PRE-luciferase Assay in CV-1 Cells
The object of this assay is to determine a compound's progestational or antiprogestational potency based on its effect on PRE-luciferase reporter activity in CV-1 cells co-transfected with human PR and PRE-luciferase plasmids. The materials methods used in the assay are as follows.
a. Growth Medium: DMEM (BioWhittaker) containing 10% (v/v) fetal bovine serum (heat inactivated), 0.1 mM MEM non-essential amino acids, 100 U/ml penicillin, […] streptomycin, and 2 mM GlutaMax (GIBCO, BRL). Experimental medium: DMEM (BioWhittaker), phenol red-free, containing 10% (v/v) charcoal-stripped fetal bovine serum (heat-inactivated), 0.1 mM MEM non-essential amino acids, 100 U/ml penicillin, […] streptomycin, and 2 mM GlutaMax (GIBCO, BRL).
b. Cell Culture, Transfection, Treatment, and Luciferase Assay
Stock CV-1 cells are maintained in growth medium. Co-transfection is done using 1.2×10^7 cells, […] pLEM plasmid with hpR-B inserted at Sph1 and BamH1 sites, […] pGL3 plasmid with two PREs upstream of the luciferase sequence, and […] sonicated calf thymus DNA as carrier DNA in […]. Electroporation is carried out at 260 V and […] in a Biorad Gene Pulser II. After electroporation, cells are resuspended in growth medium and plated in 96-well plate at 40,000 cells/well in 200 μl. Following overnight incubation, the medium is changed to experimental medium. Cells are then treated with reference or test compounds in experimental medium. […] Twenty-four hr. after treatment, the medium is discarded, cells are washed three times with D-PBS (GIBCO, BRL). Fifty μl of cell lysis buffer (Promega, Madison, Wis.) is added to each well and the plates are shaken for 15 min in a Titer Plate Shaker (Lab Line Instrument, Inc.). Luciferase activity is measured using luciferase reagents from Promega.
Each treatment consists of at least 4 replicates. Log transformed data are used for analysis of variance and nonlinear dose response curve fitting for both agonist and antagonist modes. Huber weighting is used to downweight the effects of outliers. EC50 or IC50 values are calculated from the retransformed values.

Another series relates to ovulation. Briefly: Rat ovulation inhibition model. It counts as in vivo.
Another series relates to T47D cells. Briefly: T47D cell proliferation assay (BrdU incorporation). The series is classed as cell-based. The note with it: half-maximal increase in BrdU incorporation in T47D cells; individual studies. How it is done: 3. T47D Cell Proliferation Assay
The objective of this assay is the determination of progestational and antiprogestational potency by using a cell proliferation assay in T47D cells. A compound's effect on DNA synthesis in T47D cells is measured.
DMEM:F12 (1:1) (GIBCO, BRL) supplemented with 10% (v/v) fetal bovine serum (not heat-inactivated), 100 U/ml penicillin, […], and 2 mM GlutaMax (GIBCO, BRL).
Minimum Essential Medium (MEM) (#51200-038GIBCO, BRL) phenol red-free supplemented with 0.5% charcoal stripped fetal bovine serum, 100 U/ml penicillin, 200 mg/ml streptomycin, and 2 mM GlutaMax (GIBCO, BRL).
Stock T47 D cells are maintained in growth medium For BrdU incorporation assay, cells are plated in 96-well plates (Falcon, Becton Dickinson Labware) at 10,000 cells/well in growth medium. […]
At the end of BrdU labeling, the medium is removed and BrdU incorporation is measured using a cell proliferation ELISA kit (#RPN 250, Amersham Life Science) according to manufacturer's instructions. […] Then 25 μl of 1 M sulfuric acid is added to each well to stop color reaction and optical density is read in a plate reader at 450 nm within 5 min.
Square root-transformed data are used for analysis of variance and nonlinear dose response curve fitting for both agonist and antagonist modes. […] EC50 or IC50 values are calculated from the retransformed values. […]

A word on the EC50: it is the concentration that produces a half-maximal response. In the case of `C#C[C@]1(O)CC[C@H]2[C@@H]3CCC4=CC(=O)CC[C@@H]4[C@H]3C(=C)C[C@@]21CC` [3-Ketodesogestrel], the EC50 in series [1] was 0.10 mg/kg, s.c. and 0.06 mg/kg, s.c. and 0.11 mg/kg, s.c.
Broadly, the Ki is a measure of affinity in units of concentration, obtained from inhibition or displacement. High values mean a looser hold on the target, low ones a stronger hold on the target. The melting point is the temperature of the solid-liquid transition. As for `S=C1Nc2ccc(-c3cccc(Cl)c3)cc2C12CCCCC2` [Example 1, 5′-(3-Chlorophenyl)spiro[cyclohexane-1,3′-[3H]indole]-2′(1′H)-thione], the melting point lay within 223 to 227 °C. In series [2], this compound showed a Ki of 0.2 nM. The compound further registered an EC50 at human PR of 0.8 nM.
The like results for `N#Cc1cc(-c2ccc3c(c2)C2(CCCCC2)C(=S)N3)cs1` [Example 3, 4-(1′, 2′-Dihydro-2′-thioxospiro[cyclohexane-1,3′-[3H]indol]-5′-yl)-2-thiophenecarbonitrile] were, in that order, 230 to 232 °C, 0.1 nM and 0.2 nM.
In turn, `N#Cc1cc(F)cc(-c2ccc3c(c2)C2(CCCCC2)C(=S)N3)c1` [Example 4, 3-(1,2-Dihydro-2-thioxospiro[cyclohexane-1,3-[3H]indol]-5-yl)-5-fluorobenzonitrile] yielded a melting point of 236 to 250 °C. Also, the affinity in series [2] corresponds to a Ki of 0.06 nM. For the same compound, the “Ovulation inhibition IC100” value with ovulation was determined as 0.1 mg/kg. Also, a half-maximal response on human PR (EC50) required 0.1 nM.
`Cc1cc(C(N)=S)sc1-c1ccc2c(c1)C1(CCCCC1)C(=S)N2` [Example 5, 4-Methyl-5-(1,2-dihydro-2-thioxospiro[cyclohexane-1,3-[3H]-indol]-5-yl)-2-thiophene Thioamide] yielded a melting point of 244 to 249 °C. The same compound yielded an EC50 at human PR of 0.3 nM.
Compound `CC1(C)C(=S)Nc2ccc(-c3cccc(Cl)c3)cc21` [Example 16, 5-(3-Chlorophenyl)-3,3-dimethyl-1,3-dihydro-2H-indole-2-thione] returned a melting point of 158 to 160 °C.
Regarding `CC1(Cc2ccccc2)C(=S)Nc2ccc(-c3cccc(Cl)c3)cc21` (stereo not shown) [Example 17, 3-Benzyl-5-(3-chlorophenyl)-3-methyl-1,3-dihydro-2H-indole-2-thione], the melting point fell in the range of 168 to 170 °C.
On the same count and under the same terms, in the case of `COc1cccc(-c2ccc3c(c2)C(C)(C)C(=S)N3)c1` [Example 19, 5-(3-Methoxyphenyl)-3,3-dimethyl-1,3-dihydro-2H-indole2-thione] it was 149 to 150 °C.
On to `C#C[C@]1(O)CC[C@H]2[C@@H]3CCC4=CC(=O)CC[C@@H]4[C@H]3CC[C@@]21CC` [Levonorgestrel], for which the EC50 in series [1] is 0.08 mg/kg, s.c. and 0.12 mg/kg, s.c. and 0.09 mg/kg, s.c.
With `CC(=O)O[C@]1(C(C)=O)CC[C@H]2[C@@H]3C[C@H](C)C4=CC(=O)CC[C@]4(C)[C@H]3CC[C@@]21C` [MPA, medroxyprogesterone acetate], the EC50 in the series on T47D cells is 0.017 nM and 0.019 nM; in series [1], 0.42 mg/kg, s.c. and 0.39 mg/kg, s.c.
For `CC(=O)[C@H]1CC[C@H]2[C@@H]3CCC4=CC(=O)CC[C@]4(C)[C@H]3CC[C@]12C` [Progesterone], the EC50 in series [1] was 5.50 mg/kg, s.c. and 6.21 mg/kg, s.c.
Take `CC#C[C@]1(O)CC[C@H]2[C@@H]3CCC4=CC(=O)CCC4=C3[C@@H](c3ccc(N(C)C)cc3)C[C@@]21C` [RU486]: the IC50 in series [1] (half-maximal decrease in EC50 progesterone induced decidual response, rats, p.o.) was 0.21 mg/kg, p.o. and 0.14 mg/kg, p.o.
Turning to `C[C@H](O)C(=O)[C@@]1(C)CC[C@H]2[C@@H]3CCC4=CC(=O)CCC4=C3CC[C@@]21C` [Trimegestone], the EC50 in the series on T47D cells was 0.017 nM and 0.014 nM and 0.019 nM.
